Test results reported in US20030165919A1, “Method for the analysis of exogenic and endogenic cell activiation based on measuring the aggregation of receptors” (priority 2000, published 2003).

Experiments:
CD11b and CD14 = target: T1, CD11b and CD14 (Homo sapiens, UniProt P08571); test: FRET flow cytometry: co-assembly of CD11b and CD14 on monocytes; assay type: cell-based; conditions: for co-assembly of CD11b and CD14 (energy transfer between monoclonal antibodies): human monocytes in whole blood, stimulation with the substance alone, 37° C. 15 minutes
T1 construct: endogenous in cells; host or cells: human monocytes in heparinised whole blood (healthy donors and patients)
T1 sequence (P08571 20-345 limits assumed): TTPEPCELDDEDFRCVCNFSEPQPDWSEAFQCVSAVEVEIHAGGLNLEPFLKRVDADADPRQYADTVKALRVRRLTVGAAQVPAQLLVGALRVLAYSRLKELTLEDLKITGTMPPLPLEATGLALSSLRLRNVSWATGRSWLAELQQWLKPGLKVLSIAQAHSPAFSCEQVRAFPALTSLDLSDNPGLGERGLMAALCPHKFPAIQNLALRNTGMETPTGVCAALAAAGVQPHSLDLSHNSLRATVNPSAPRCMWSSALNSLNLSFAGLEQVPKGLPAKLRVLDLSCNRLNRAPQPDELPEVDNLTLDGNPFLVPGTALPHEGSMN
Protocol: (§1) Aliquots […] of whole blood were incubated with the following stimulatory compounds at 37° C. for 15 minutes: LPS of Salmonella minnesota (0.1-10 nM, Mw 10 kDa), ceramide (primarily stearic acid and nervonic acid) and sulfogalactosyl ceramide (SG-cer, […]), both of which tested LPS free in the LAL assay (Cer, 1 nM-5.5 mM), lysophosphatidyl choline (lyso-PC, 10 mM), phorbol-12-myristate-13-acetate (PMA, 1 mM), N-formyl-L-methionyl-L-leucyl-L-phenyl alamine (fMLP, 1 mM), PE, PC, PI and PS liposomes (10 mm) which had been prepared as described above. All reagents were obtained from Sigma. In addition, the cells were stimulated with HPS70 (7 nM), dHSP70 (7 nM) and SG-cer+dHSP70 (40 nM+7 nM). After incubation, the cells were washed with cold PBS containing 0.1% of NaN3. The synthetic LPS antagonist lipid IVa (“compound-406”, 1-400 ng/ml) and lipid A derived from E. coli (1-100 ng/ml) were made available by courtesy of Dr. S. Kusumoto. The cells were pre-incubated with the LPS antagonist at 37° C. for 15 minutes and then stimulated with LPS at the same temperature (without washing).
Whole blood cells which had been stimulated or washed ex vivo […] were incubated on ice for 15 minutes with saturation concentrations of monoclonal fluorochrom-conjugated or biotinylated antibodies. The monoclonal antibodies CD11a (clone 25.3.1), CD16a (clone 3G8). CD18 (clone 7E4), CD14 (clone RMO52), CD33 (clone My9-RD1). CD81 (clone Js64) were obtained as R-phyco-erythrine (R-PE) conjugates and CD25 (clone B1.49.9) in biotinylated form from Coulter/Immunotech (Krefeld, Germany). CD11b (clone d12), CD11c (clone S-HCL-3), CD36 (clone CB38), CD47 (clone B6H12), CD81 (clone JS-81) and (Cd55 (clone IA10) in biotinylated form and Streptavidin-R-PE were purchased from Becton/Dickinson/Pharningen (Heidelberg, Germany) CD18 (clone IB4) in biontinylated form and CD40 (clone EA-5) as R-PE conjugate were obtained from Alexis (Grünberg, Germany) and CD14 (clones ×8 and Uchml) and CD3 (clone Cris-7) in biotinylated form and Streptavidin-Cy5 (Sa-Cy5) from Dianova (Hamburg, Germany), CD32 (clone C1KM5) and CD64 (clone 10.1) were obtained as R-PE conjugates from Caltag (Burlingame, U.S.A.) and CD91 (clone 8G1) in biotinylated form from Proen (Heidelberg, Germany). A monoclonal anti-TLRA antibody (clone HTA125) was kindly provided by Dr. Kensuke. Since no energy transfer between the antibodies directed against the CD14/CD11a and CD14/CD11c pairs was detectable either on resting or on stimulated cells, these antibody combinations were not characterised further.
Lysis of erythrocytes and washing were carried out as described (Rothe et al., Thromb. Vasc. Biol. 16 (1996), 1437-1447). After the last washing step, the samples were divided and part of each sample incubated with a saturating amount of SA-Cy5 on ice for 15 minutes and washed before measuring.
For energy transfer experiments, […] aliquots of whole blood were treated with cholesterol/methyl cyclodextrine (C/C) (100 mg/ml/4.6 mg/ml) or 2-hydroxypropyl-β-cyclodextrine (0.15 mg/ml) at 37° C. for 30 minutes and then stimulated further with LPS (4 nM) or ceramide (40 nM) as described above. The energy transfer between CD14 and CD11b was measured.
A “FACSCalibur” flow cytometer (Becton Dickinson) equipped with an air-cooled 15 mW argon laser (excitation wavelength 488 nm), a diode laser (excitation wavelength […]) and standard filters [channel 1 (FITC): 530/30 nm band pass filter; channel 2 (R-PE being used as donor dye); 585/47 nm band pass filter; channel 3 (PerCP): pass having a length of >670 nm; and channel 4 (Cy5being used as recipient dye): 661/16 nm bad pass filter] was used. The Cellquest software (Becton Dickinson) was used for the measurements. […] Measurement was conducted without compensation. 50,000 leukocytes were required in the “list” modus, forward scattering (FSC) being used as a trigger signal. […]

[1] = target: T2, receptor cluster comprising CD14 (Homo sapiens, UniProt P08571); test: FRET with a series of antibody pairs: receptor cluster comprising CD14 on monocytes; assay type: cell-based; conditions: stimulation of the cells as control
T2 construct: endogenous in cells; host or cells: human monocytes in whole blood
T2 sequence (P08571 20-345 limits assumed): T1 sequence (P08571 20-345 limits assumed)
Protocol: as §1
Whole blood cells which had been stimulated or washed ex vivo […] were incubated on ice for 15 minutes with saturation concentrations of monoclonal fluorochrom-conjugated or biotinylated antibodies. The monoclonal antibodies CD11a (clone 25.3.1), CD16a (clone 3G8). […]

human CD14 = target: T3, human CD14 (Homo sapiens, UniProt P08571); test: Binding of [14C]N-palmitoyl-D-sphingosine to CHO cells transfected with human CD14
T3 construct: expressed in transfected cells; host or cells: CHO cells (control: pPol-DHFR vector)
T3 sequence (P08571 20-345): T1 sequence (P08571 20-345 limits assumed)
Protocol: d. CHO cells transfected with human CD14 (-unlabelled ceramide)(●)+unlabelled ceramide (∘)) or with a pPol-DHFR vector (-unlabelled ceramide (▪)+unlabelled ceramide (□)) were incubated with the specified concentrations of [^14C]N-palmitoyl-D-sphingosine and the ^14C bound to the cells determined. Each data point represents the mean value ± SD of three measurements.
Cells transfected with human CD14 or the pPol-DHFR vector were grown as described recently (Stelter et al., Eur. J. Biochem. 238 (1996), 457-464). The cells were trypsinated, washed twice with PBS and then taken up in PBS containing 10% of human serum. CHO cells (4×10^5) were pre-incubated on ice in the presence of a 50 fold excess of unlabelled N-palmitoyl-D-sphingosine (Sigma) for 15 minutes in a final volume of […]. After that [^14C]N-palmitoyl-D-sphingosine (American Radiolabeled Chemicals Inc., St. Louis, Mo., U.S.A.) was added and the cells incubated for another 15 minutes. In order to remove non-bound activity, the cells were washed twice and then transferred to a fresh Eppendorf vessel. After repeated washing, the pellet was dissolved in […] of 1% SDS, 10 mM EDTA and then added to 3 ml of scintillation liquid. The amount of cell-bound radioactivity was determined by measuring the scintillation of the liquid.

| Molecule | co-assembly of CD11b and CD14 (energy transfer between monoclonal antibodies) (CD11b and CD14) | also measured |
| --- | --- | --- |
| CCCCCCCCCCCCCC(=O)O[C@@H]1[C@@H](C)[C@@]2(O)[C@@H](C=C(CO)C[C@]3(O)C(=O)C(C)=C[C@@H]23)[C@@H]2C(C)(C)[C@]12OC(C)=O [PMA, phorbol-12-myristate-13-acetate] | neither fMLP or PMA showed any effect | energy transfer between any of the antibody pairs [1]: did not result in any significant energy transfer |
| CCCCCCCCCCCCC/C=C/[C@@H](O)[C@H](CO)N[14C](=O)CCCCCCCCCCCCCCC [[^14C]-N-palnitoyl-D-sphingosine, [^14C]N-palmitoyl-D-sphingosine] |  | inhibition of binding by 50-fold excess of unlabelled ligand (human CD14; CD14-transfected CHO fibroblasts): could be inhibited by adding a 50-fold excess of unlabelled ligand; binding to CD14-transfected CHO fibroblasts compared to vector-transfected cells (human CD14; cell-bound 14C, PBS with 10% human serum, on ice 15 minutes): much higher when compared to vector-transfected cells |
| CCCCCCCCCCC[C@@H](O)CC(=O)N[C@H]1[C@H](OC[C@H]2O[C@H](OP(=O)(O)O)[C@H](NC(=O)C[C@H](O)CCCCCCCCCCC)[C@@H](OC(=O)C[C@H](O)CCCCCCCCCCC)[C@@H]2O)O[C@H](CO)[C@@H](OP(=O)(O)O)[C@@H]1OC(=O)C[C@H](O)CCCCCCCCCCC [compound-406] | did not induce co-assembly of the receptors CD14 and CD11b | effect on LPS-induced co-association between CD14 and CD11b (CD11b and CD14; antagonist given in vitro 15 minutes before stimulation, LPS 4 nM + c-406 400 ng/ml): reduced the LPS- or ceramide-induced co-association between CD14 and CD11b significantly; effect on ceramide-induced co-association between CD14 and CD11b (CD11b and CD14; antagonist given in vitro 15 minutes before stimulation, ceramide 10 nM + c-406 100 ng/ml): reduced the LPS- or ceramide-induced co-association between CD14 and CD11b significantly |
| CSCC[C@H](NC=O)C(=O)N[C@@H](CC(C)C)C(=O)N[C@@H](Cc1ccccc1)C(=O)O [fMLP, N-formyl-L-methionyl-L-leucyl-L-phenyl alamine] | neither fMLP or PMA showed any effect | energy transfer between any of the antibody pairs [1]: did not result in any significant energy transfer |
| dHSP70: HSP70 delipidated in ethanol/diethyl ether | does not induce any receptor complex |  |
| lipid A | induced the co-assembly of CD11b and CD14 |  |
| lyso-phosphatidyl choline [lysoPC] | Only lipoteichoic acid, PE and PI induced co-assembly |  |
| phosphatidyl choline [PC] | Only lipoteichoic acid, PE and PI induced co-assembly |  |
| phosphatidyl ethanol amine [PE] | induced co-assembly between CD11b and CD14 |  |
| phosphatidyl inositol [PI] | induced co-assembly between CD11b and CD14 |  |
| phosphatidyl serine [PS] | Only lipoteichoic acid, PE and PI induced co-assembly |  |
| sulfogalactosyl ceramide [SG-cer] | Only lipoteichoic acid, PE and PI induced co-assembly |  |
